For data set [1], the system named is murine norovirus. The experiment in a line: Modified test EN 1500, hygienic disinfection of the hands of test persons contaminated with virus. The data set is classed as in vivo. As to conditions: 5 test persons. On the procedure:
Method B:: Modified test EN 1500 "Hygienic disinfection of the hands"
The test is based upon EN 1500 (practical test method for the hygienic disinfection of the hands).
In the tests, the hands of test persons are contaminated with 3 ml of murine norovirus, namely both the hands of the test persons of the reference group and the hands of the test persons of the test group. A sample is then taken (1 min) before the disinfection. After that, the test persons of each group disinfect their hands with disinfection agent. The test persons of the reference group disinfect twice with 3 ml of a reference product in each case, the reference product being allowed to act for 30 sec and rubbed in after each disinfection. The test persons of the test group instead disinfect twice with 3 ml of the disinfection agent to be tested. After that, a sample is taken […] (1 min), both in the reference group and in the test group.
The test persons of the respective group are then swapped over in a second test.

In data set [2] the test system is RAW cells ATCC TIB-71. The experiment in a line: Cytotoxicity control (CD50) of the EN 14476 suspension test. Also on record: unit not given beside the values. The note with it: reference inactivation, PBS. On the procedure:
Virus control: The virus titre for the murine norovirus amounted to 7.50 ± 0.47 TCID50 / 0·1 ml and thus to 8.50 ± 0.47 TCID50 / ml. The demonstrable titre reduction thus amounted to ≥ 4.00 lg^10. […] Reference The reduction factor of 0.7% formaldehyde amounted to 2·33 log^10 inactivation after 30 min exposure time and to 3.17 log^10 after 60 min exposure time.

For data set [3], the system named is murine norovirus, strain S 99 Berlin. Briefly: Quantitative suspension test of virucidal effect according to EN 14476 (low stressing). The note with it: for log reduction at 0.7 %: Norwalk virus, read-out: reduction factor; for log10-TCID50 / 0·1 ml after ... min murine norovirus: reference inactivation, PBS.
Protocol: Method A:Quantitative suspension test of virucidal effect according to EN 14476: Murine norovirus (low stressing)
Methodology:EN 14476:2005-04/A1:2006-10 and PrEN 14476:2011: Chemical disinfection agents and antiseptics - Quantitative suspension test of virucidal effect for chemical disinfection agents and antiseptics used in human medicine, Test methods and requirements (phase 2, stage 1)
In order to achieve the concentration of 97%, 0·1 ml of the virus, 0.2 ml of the 5-fold concentrated stressing substance and 9.7 ml of the product are mixed. After the termination of the exposure time, the effect of the disinfection agent is stopped by dilution (or gel filtration) and a series of dilutions in accordance with the progression 1:10/ 1:100 / 1:1,000 etc. is applied in order to determine the residual virus content. The titration is carried out in the microtitre system on 96-well plates.
Titration method: • Virus titration on cells as monolayers in 96-well microtitration plates. 0.5ml of product test solution is diluted with 4.5 ml of ice-cold DMEM + 2% FBS to a dilution of 10^-8. 100 µl of each dilution was pipetted into 6 wells of the microtitration plate. Method of terminating the effect of the product and reducing the cytotoxicity: • Gel filtration with MicroSpin columns and dilution to 10^-4 within 10 sec with ice-cold DMEM + 2% FBS
The TCID50 was calculated in accordance with the method of Spearman and Kärber. m = xk + d/2−d∑pi [formula] • m = negative logarithm of the titre in relation to the test volume • Xk = logarithm of the smallest dilution stage in which all the test objects react positively • d = logarithm of the dilution factor • pi = observed reaction rate
RF = log(viruscontrol)−log(testproduct) [formula] KRF = sqrt(((2Sm(control)))^2 + ((2Sm(residualtitre)))^2) [formula] • KRF = 95% confidence interval of the reduction factor • Sm = standard deviation of the logarithmized titre
Data set [4] deals with murine norovirus. As to conditions: highest concentration tested of 60% by volume, non-living surfaces, Magulski et al.; cited from earlier work.

Read-outs that look alike come from different tables or passages of the source. Bounds are passed on as bounds.

With `CCO` [Ethanol 70% w/w, Ethanol], in data set [1] (2 x 30 s with 3 ml each), the Average after disinfection was 3.02 log TCID50/ml. Also, the Average before disinfection in data set [1] (baseline before disinfection) is given as 5.6 log TCID50/ml. This compound also gave an RF in data set [1] (reduction factor, 2 x 30 s with 3 ml each) of 2.58 log TCID50/ml.

Consider `C=O` [Formaldehyde 0·7% (V/V), Formaldehyde], for which the CD50 in data set [2] is recorded as at most 3.5. For the same compound, the results for the log reduction at 0.7 % in data set [3] (0.5 h) and in data set [3] (1 h) were 2.33 and 3.17, respectively. In addition, the “log10-TCID50 / 0·1 ml after ... min murine norovirus” value in data set [3] (residual titre after 5 min) turned out to be 6.33 ± 0.33 log10-TCID50 / 0·1 ml; in data set [3] (residual titre after 15 min) it was 5.67 ± 0.54 log10-TCID50 / 0·1 ml; in data set [3] (residual titre after 30 min), 5.17 ± 0.56 log10-TCID50 / 0·1 ml; in data set [3] (residual titre after 60 min), 4.33 ± 0.33 log10-TCID50 / 0·1 ml.

As for `CC(C)O` [isopropanol], in data set [4], the “effectiveness compared with ethanol and n-propanol” value is “three decadic levels below the effectiveness of ethanol and n-propanol”.

Values taken from patent publication EP3019008B1, “USE OF AN ISOPROPANOL-CONTAINING SOLUTION TO COMBAT CALCIVIRIDAE” (Schülke & Mayr GmbH, priority 2013, dated 2015).
